Test results taken from PubChem BioAssay AID1845216 (Molecular Pharmacology Branch, DTP, NCI, 2023).

Test system: SW 982 tumor spheroid viability
Experiment: Anticancer human tumor SW 982 cell line growth inhibition;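 further: spheroids exposed to compound for 7 days before readout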
Conditions: spheroids with HUVEC and MSC; for IC50: curve of first compound; for viability, T/C: stronger effect = lower value
How it was run: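 Complex spheroids of malignant cells with endothelial cells and mesenchymal stem cells; agents alone or combined, from near clinical Cmax (or 10 microM if unknown) down in half-log steps, 0.25% DMSO final.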

[1] = second compound 30 pM, first compound 0.0316 µM
[2] = second compound 30 pM, first compound 0.1 µM
[3] = second compound 30 pM, first compound 0.316 µM
[4] = second compound 30 pM, first compound 1 µM
[5] = second compound 30 pM, first compound 3.16 µM
[6] = second compound 30 pM, first compound 10 µM
[7] = second compound 94.9 pM, first compound 0.0316 µM
[8] = second compound 94.9 pM, first compound 0.1 µM
[9] = second compound 94.9 pM, first compound 0.316 µM
[10] = second compound 94.9 pM, first compound 1 µM
[11] = second compound 94.9 pM, first compound 3.16 µM
[12] = second compound 94.9 pM, first compound 10 µM
[13] = second compound 0.0003 µM, first compound 0.0316 µM
[14] = second compound 0.0003 µM, first compound 0.1 µM
[15] = second compound 0.0003 µM, first compound 0.316 µM
[16] = second compound 0.0003 µM, first compound 1 µM
[17] = second compound 0.0003 µM, first compound 3.16 µM
[18] = second compound 0.0003 µM, first compound 10 µM
[19] = second compound 0.000949 µM, first compound 0.0316 µM
[20] = second compound 0.000949 µM, first compound 0.1 µM
[21] = second compound 0.000949 µM, first compound 0.316 µM
[22] = second compound 0.000949 µM, first compound 1 µM
[23] = second compound 0.000949 µM, first compound 3.16 µM
[24] = second compound 0.000949 µM, first compound 10 µM
[25] = second compound 0.003 µM, first compound 0.0316 µM
[26] = second compound 0.003 µM, first compound 0.1 µM
[27] = second compound 0.003 µM, first compound 0.316 µM
[28] = second compound 0.003 µM, first compound 1 µM
[29] = second compound 0.003 µM, first compound 3.16 µM
[30] = second compound 0.003 µM, first compound 10 µM

| Compound | IC50 (second compound 30 pM) [µM] | IC50 (second compound 94.9 pM) [µM] | IC50 (second compound 0.0003 µM) [µM] | IC50 (second compound 0.000949 µM) [µM] | IC50 (second compound 0.003 µM) [µM] | viability, T/C [1] [%] | viability, T/C [2] [%] | viability, T/C [3] [%] | viability, T/C [4] [%] | viability, T/C [5] [%] | viability, T/C [6] [%] | viability, T/C [7] [%] | viability, T/C [8] [%] | viability, T/C [9] [%] | viability, T/C [10] [%] | viability, T/C [11] [%] | viability, T/C [12] [%] | viability, T/C [13] [%] | viability, T/C [14] [%] | viability, T/C [15] [%] | further results |
| --- | --- | --- | --- | --- | --- | --- | --- | --- | --- | --- | --- | --- | --- | --- | --- | --- | --- | --- | --- | --- | --- |
| COc1ccc([C@@H](O)c2cc(-c3ncnc4cc(N5CCOCC5)ccc34)c(F)cc2Cl)nn1 + COc1cc2c(cc1O)CCNC21CSC2c3c(OC(C)=O)c(C)c4c(c3C(COC1=O)N1C(O)C3Cc5cc(C)c(OC)c(O)c5C(C21)N3C)OCO4 | 7.19 | 4.6 | 1.07 | < 0.0316 | < 0.0316 | 102 | 102 | 96.4 | 88.8 | 79.6 | 38.8 | 96.3 | 97.3 | 93.4 | 70.8 | 65.9 | 26.9 | 84.1 | 83.1 | 84 | viability, T/C [16]: 48%; viability, T/C [17]: 23.6%; viability, T/C [18]: 6.67%; viability, T/C [19]: 36.2%; viability, T/C [20]: 32.6%; viability, T/C [21]: 19.4%; viability, T/C [22]: 4.23%; viability, T/C [23]: 0.86%; viability, T/C [24]: 0.73%; viability, T/C [25]: 0.88%; viability, T/C [26]: 0.57%; viability, T/C [27]: 0.41%; viability, T/C [28]: 1.06%; viability, T/C [29]: 1.12%; viability, T/C [30]: 1.01% |
| Cc1cc(C)c(CNC(=O)c2cc(-c3ccc(CN4CCOCC4)cc3)cc3c2cnn3C2CCCC2)c(=O)[nH]1 + COc1cc2c(cc1O)CCNC21CSC2c3c(OC(C)=O)c(C)c4c(c3C(COC1=O)N1C(O)C3Cc5cc(C)c(OC)c(O)c5C(C21)N3C)OCO4 | > 10 | > 10 | 10 | < 0.0316 | < 0.0316 | 97.9 | 99.7 | 104 | 96.7 | 92 | 66.7 | 95.4 | 106 | 102 | 103 | 88.4 | 57.9 | 74.7 | 76 | 84 | viability, T/C [16]: 80.7%; viability, T/C [17]: 71.5%; viability, T/C [18]: 49.8%; viability, T/C [19]: 35.7%; viability, T/C [20]: 39.9%; viability, T/C [21]: 37.5%; viability, T/C [22]: 36.1%; viability, T/C [23]: 27.6%; viability, T/C [24]: 17.8%; viability, T/C [25]: 0.71%; viability, T/C [26]: 0.36%; viability, T/C [27]: 0.51%; viability, T/C [28]: 0.31%; viability, T/C [29]: 0.29%; viability, T/C [30]: 0.83% |
| [2H]c1nc(C)nc([2H])c1-c1cc(NC[C@@H](C)c2cccc3c(C(=O)NC)ccnc23)ncn1 + COc1cc2c(cc1O)CCNC21CSC2c3c(OC(C)=O)c(C)c4c(c3C(COC1=O)N1C(O)C3Cc5cc(C)c(OC)c(O)c5C(C21)N3C)OCO4 | > 10 | > 10 | > 10 | < 0.0316 | < 0.0316 | 91.1 | 100 | 98 | 93.3 | 90.3 | 101 | 95.7 | 90.7 | 98.1 | 93.8 | 89.4 | 91.2 | 87.2 | 83.2 | 79.4 | viability, T/C [16]: 70.3%; viability, T/C [17]: 74.9%; viability, T/C [18]: 75.4%; viability, T/C [19]: 37.3%; viability, T/C [20]: 26.5%; viability, T/C [21]: 44.4%; viability, T/C [22]: 44.1%; viability, T/C [23]: 42.6%; viability, T/C [24]: 21.9%; viability, T/C [25]: 0.62%; viability, T/C [26]: 1.1%; viability, T/C [27]: 1.05%; viability, T/C [28]: 0.69%; viability, T/C [29]: 0.48%; viability, T/C [30]: 0.77% |
